Laboratory results as given in paper PMC12040169 (PLOS Biology, 2025).

Assay: in vitro
Conditions: human, hela cells

Row | SMILES | viability at 28.5 h, 10 µM (% viability) [%] | also measured
1 | O=c1[nH]c2ccccc2n1C1CCN(S(=O)(=O)c2cc(Cl)cc(Cl)c2O)CC1 [CBK149694] | 81.4 | –
2 | CCN(CC)CCCOC(=O)C(CCSC)c1ccccc1C (centres unmarked) [CBK023177C] | 91.7 | –
3 | COc1ccc(C(C)C)cc1-c1cc(NCCc2cccnc2)n2nccc2n1 [CBK037097] | 104 | –
4 | c1coc(CCC2NCCn3cccc32)c1 (centres unmarked) [CBK023964F] | 95.2 | –
5 | COc1cncc(-c2cc(Nc3ccc(O)cc3)ncn2)c1 [CBK090752] | 98 | –
6 | Cc1ccn2c(C3CCN(CCc4ccccc4)CC3)nc(-c3ccccc3)c2c1 [CBK035490] | 89.4 | –
7 | O=C1Cc2ccccc2C2(CCN(C(=O)c3cccc4cccc(C(=O)O)c34)CC2)N1 [CBK047313] | 93.2 | –
8 | C=C(C)Cn1c(SC(C)C)nnc1-c1ccccc1OC(F)(F)F [CBK200081] | 114 | –
9 | O=C1COc2ccccc2C/C=C/CC2(CCCNC2)CN1 (centres unmarked) [CBK292029] | 91.5 | –
10 | Cc1cccc(OCC(=O)Nc2sc3c(c2C(N)=O)CCC3)c1C [CBK269729] | 94.8 | –
11 | CC1=CC(C)C2C(=O)N(c3ccc(C(=O)O)cc3)C(=O)C2C1 (centres unmarked) [CBK286923] | 87 | –
12 | O=S(=O)(CCOc1ccccc1)N(CCOc1ccccc1)C1CCCCC1 [CBK022003] | 103 | –
13 | O=C(c1ccc(O)cc1)c1ccc(C(=O)O)c(C(=O)O)c1 [CBK261075] | 105 | –
14 | OCc1cc(CC2(NCc3cccc4c3OCO4)COC2)no1 [CBK289314] | 90.6 | –
15 | Cc1ccc(C)c(NC(=O)c2cnc3sccn3c2=O)c1 [CBK287451] | 85.1 | –
16 | Cc1ccc(-c2nc3ccccc3[nH]2)cc1NC(=O)CSc1ccc(Cl)cc1 [CBK268942] | 98.3 | –
17 | CNC(=O)C1CCCCN1C(=O)c1cn(CCOC)c2ccccc12 (centres unmarked) [CBK306308] | 94.8 | –
18 | CN(C)CCN(C)Cc1ccc2ccc3cccc4ccc1c2c34 [CBK261860] | 103 | –
19 | COc1cccc(CN2CCCC(NC(=O)c3cnn(C(C)C)c3)C2)c1 (centres unmarked) [CBK307477] | 91.3 | –
20 | CCOC(=O)C1CC2CCC1C[C@]21NC(=O)c2ccccc2N1 (some centres unmarked) [CBK284441] | 93.4 | –
21 | Cc1ccc(Cn2nc(NC(=O)c3ccccc3)c3ccccc32)cc1 [CBK048213] | 97.5 | –
22 | FC(F)(F)c1cccc(OCCOc2nccnc2N2CCNCC2)c1 [CBK014518G] | 105 | –
23 | O=C(O)CSc1nnc2n(-c3ccccc3)c3ccccc3n12 [CBK268557] | 106 | –

Row | SMILES | viability at 28.5 h, 10 µM (% viability) [%] | also measured
24 | Oc1ccc(-c2n[nH]cc2-c2cnn(-c3ccccc3)c2)c(O)c1O [CBK266948] | 104 | –
25 | O=C(c1ccc2occc2c1)N1CCCC2(CCN(Cc3ccccc3)C2)C1 (centres unmarked) [CBK136882] | 105 | –
26 | CN(C)CCCNC(=S)NC(=O)c1ccccc1 [CBK265317] | 117 | –
27 | Cc1csc2c(C3CCCN(C(=O)c4ccncc4)C3)nc(C)n12 (centres unmarked) [CBK285213] | 100 | –
28 | Cc1ccn2ncc(C(=O)N3CCCCCC3c3ccco3)c2n1 (centres unmarked) [CBK304015] | 111 | –
29 | COc1cnc(-c2ccccc2OC)c(NC(C)=O)n1 [CBK145259] | 89.1 | –
30 | CC(Oc1ccccc1)C(=O)Nc1nn(Cc2ccc(S(=O)(=O)N3CCCC3)cc2)c2ccccc12 (centres unmarked) [CBK061595] | 102 | –
31 | CN1CCN(C(=O)c2[nH]c3ccccc3c2NS(=O)(=O)/C=C/c2ccccc2)CC1 [CBK050047] | 106 | –
32 | Cn1cc2c(n1)CC1CCC2N1C(=O)c1ccc(F)c(F)c1 (centres unmarked) [CBK281691] | 92.6 | –
33 | COc1ccc(-n2c(SCC(N)=O)nc3sc4c(c3c2=O)CC(C)(C)OC4)cc1 [CBK263232] | 101 | –
34 | O=C(COc1ccccc1)N1CCN(Cc2ccncc2)CC1 [CBK072595] | 94.6 | –
35 | O=C(O)CN1C(=O)/C(=C\c2ccc(Oc3ccc(C(F)(F)F)cc3[N+](=O)[O-])cc2)SC1=S [CBK264809] | 97.9 | –
36 | OCCOc1cccc(-c2nnco2)c1 [CBK000033] | 98.6 | –
37 | Cc1ccc(S(=O)(=O)N(C)c2c(C)ccc(S(=O)(=O)N3CCN(C)CC3)c2C)cc1 [CBK265642] | 96.1 | –
38 | COC(=O)Cn1nnc(-c2ccccc2)n1 [CBK069215] | 84.8 | –
39 | O=C(NCCO)NC(=S)c1ccccc1 [CBK267213] | 95.2 | –
40 | Cc1cc(C)nc(NC(=N)NC2Cc3ccccc3C2)n1 [CBK287863] | 43.4 | –
41 | COc1ccc(-c2cccc(Nc3cc(OC)c(OC)c(OC)c3)n2)cc1OC [CBK037634] | 55.7 | –
42 | COc1ccc(C(C)(C)C)cc1S(=O)(=O)NC1CC(C)(C)NC(C)(C)C1 [CBK267865] | 102 | –
43 | Cc1nc(C2CC(=O)N(Cc3ccccn3)C2)n(-c2ccccc2F)n1 (centres unmarked) [CBK306895] | 89.6 | –
44 | Cn1cncc1CN1C2CCC1CC(O)(c1ccccc1F)C2 (centres unmarked) [CBK282649] | 107 | –
45 | CSc1cc(CC(C)(C)C)c2cccc(F)c2n1 [CBK018791] | 99.8 | –
46 | CC(C)c1ccc(C(=O)NC2CCN(CC(F)(F)F)C2=O)nc1 (centres unmarked) [CBK304089] | 108 | –

Row | SMILES | viability at 28.5 h, 10 µM (% viability) [%] | also measured
47 | CN(Cc1nccs1)C(=O)c1cccc(OCC(=O)N2CCCCC2)c1 [CBK307478] | 108 | –
48 | Cn1cc(C(=O)NC(Cc2ccsc2)c2cccnc2)cn1 (centres unmarked) [CBK285118] | 99.9 | –
49 | COc1cccc(C(=O)Nc2ccc(-c3noc(-c4ccccn4)n3)cc2)c1 [CBK270055] | 110 | –
50 | O=c1nc(-c2cc(Br)cs2)[nH]c2ccc(Cl)cc12 [CBK018959] | 90.5 | –
51 | CC(=O)c1ccc(-c2cc(C(=O)NCc3cccc(C(F)(F)F)c3)cnc2-c2ccccc2)s1 [CBK036641] | 90.1 | –
52 | CN1CCN(c2cc(-c3ccncc3)nc3ccccc23)CC1 [CBK050976B] | 89.1 | –
53 | Cn1nc(C(F)(F)F)cc1C1CCCCCN1S(C)(=O)=O (centres unmarked) [CBK284673] | 101 | –
54 | CCCc1[nH]nc(O)c1Cc1ccccc1CS(=O)(=O)c1ccccc1 [CBK074347] | 87.8 | –
55 | CN1C(=O)c2ccccc2OCCCCC[C@H]2[C@@H]1CCCN2C(=O)c1ccccc1Cn1cncn1 [CBK292114] | 110 | –
56 | COCCCNC(=O)c1cnn2c(C)c(Cc3ccccc3Br)c(C)nc12 [CBK071628] | 101 | –
57 | O=C(O)CP(=O)(O)c1ccc(Cl)cc1 [CBK019291] | – | viability at 28.5 h, 10 µM: 102%
58 | CC(C)C(=O)N1CCC(n2nc(-c3ccco3)ccc2=O)CC1 [CBK284244] | 83.8 | –
59 | CC(C)(C)C(=O)N1CCc2c([nH]c3ccccc23)C12CCNC2 (centres unmarked) [CBK059462] | 97.5 | –
60 | O=S(=O)(Nc1ccc2c(ccn2Cc2ccccc2)c1)c1ccc(S(=O)(=O)c2ccccc2)s1 [CBK159533] | 114 | –
61 | CC(C)n1ccnc1CN1CCn2nc(CNc3cnccn3)cc2C1 [CBK306902] | 98.7 | –
62 | O=C(CSc1ccc(Cl)cc1)Nc1cccc(-c2nc3ncccc3o2)c1 [CBK264989] | 105 | –
63 | O=C(Cn1c(NCCO)nc2ccccc21)C12CC3CC(CC(C3)C1)C2 [CBK262129B] | 85.4 | –
64 | CCOC(=O)c1cnc(N2CCOCC2)nc1NCCc1c[nH]c2ccccc12 [CBK093605] | 106 | –
65 | CCOC(=O)c1ccc(N2C(=O)CC(N3CCN(c4cccc(OC)c4)CC3)C2=O)cc1 (centres unmarked) [CBK265396] | 101 | –
66 | CCn1c(=O)oc2cc(NC(=O)NCCN3CCCCC3CO)ccc21 (centres unmarked) [CBK306565] | 107 | –
67 | O=C(Nc1cccc(-c2nc3ncccc3o2)c1)c1ccc(Cl)c([N+](=O)[O-])c1 [CBK262845] | 88.8 | –
68 | COc1cc2c(cc1OC)C(C)N(C(=O)CCC(=O)O)CC2 (centres unmarked) [CBK269873] | 92.5 | –
69 | Cc1nn2c(=O)cc(C(=O)O)[nH]c2c1-c1ccccc1 [CBK287129] | 88.2 | –

Row | SMILES | viability at 28.5 h, 10 µM (% viability) [%] | also measured
70 | O=C(C1CCCC1)N1CCCC1c1nc2ccccc2[nH]1 (centres unmarked) [CBK282378] | 88.5 | –
71 | O=[N+]([O-])c1ccc(CN2CCN(c3nccnc3OCCN3CCOCC3)CC2)cc1 [CBK082892T] | 99.8 | –
72 | Cc1n[nH]c2nc(-c3cc(Br)ccc3O)cc(C(=O)O)c12 [CBK286834] | 105 | –
73 | O=C(c1coc2ccc(O)c(CN3CCCCC3)c12)C1CC1 [CBK263206C] | 93.7 | –
74 | Cc1nnc2n1CCN(C(=O)CC1OCCc3sccc31)C2 (centres unmarked) [CBK304956] | 94 | –
75 | Cc1c(C#N)sc(-c2nc[nH]n2)c1C [CBK005952] | 77.6 | –
76 | CS(=O)(=O)Nc1nnc(C2CCCCC2)s1 [CBK069540] | 95.6 | –
77 | COc1ccc(/C=C(\C)C(=O)Nc2cc3ccccc3c(N3CCNCC3)n2)cc1OC [CBK038937T] | 82.1 | –
78 | CC(C)C(=O)N1CCC(OCc2ccc(-c3ccc(C(=O)N(C)C)cc3)cc2S(C)(=O)=O)CC1 [CBK155921] | 102 | –
79 | O=C(NCc1cccnc1)c1cc(Br)cnc1NCCOc1ccccc1 [CBK076265] | 99.2 | –
80 | CCN1C(=O)C2(CC(=O)N(Cc3ccc(OC)c(OC)c3)C2=O)c2cc(C)ccc21 (centres unmarked) [CBK075172] | 85.4 | –
81 | COc1ccc(CCNc2ncnc3c2cnn3-c2ccc(C)cc2C)cc1OC [CBK294448] | 88.2 | –
82 | Cc1cc(C)cc(N2C(=O)/C(=C/c3ccc(OC(C)C(=O)O)cc3)C(=O)NC2=S)c1 (centres unmarked) [CBK264016] | – | viability at 28.5 h, 10 µM (% viability, bulk resorufin, single well): 93.9%
83 | Cc1[nH]c2ccc(C(=O)N(Cc3ccccc3)C3CC3)cc2c1C [CBK297913] | 89.1 | –
84 | Cc1nc(-c2n[nH]cc2-c2ccccc2F)sc1CCN [CBK281578] | 102 | –
85 | Nc1ncc(-c2ccc(C(=O)N3CCOCC3)cc2)nc1-c1ccc(C[C@H](N)C(=O)O)cc1 [CBK126364] | 97 | –
86 | CSCC1CCCN(C(=O)c2cc3ncc(CCO)cn3n2)C1 (centres unmarked) [CBK307256] | 79.6 | –
87 | COc1ccc(S(=O)(=O)N2CCC(C(=O)Nc3ccccc3SC)CC2)cc1C [CBK267960] | 96.2 | –
88 | COc1cccc2c1OCC[C@@H]2Oc1cncc(N2CCNCC2)n1 [CBK172305G] | 106 | –
89 | Cc1cnn(CCC(=O)NC(Cc2ccsc2)c2nccs2)c1 (centres unmarked) [CBK284664] | 88.4 | –
